From ChEMBL document CHEMBL4007445, “Design, synthesis, and biological evaluation of imidazo[1,2-b]pyridazine derivatives as mTOR inhibitors” (Eur J Med Chem, 2017) come the findings set out here.

The nature of data set [1]: Antiproliferative activity against human U87 cells after 72 hrs by SRB assay. It counts as functional, cell-based, U-87MG ATCC. The note with it: U-87 MG. For orientation: In SRB staining, fixed cells bind dye roughly in proportion to their protein.
The test system of data set [2] is MCF7. In words: Antiproliferative activity against human MCF7 cells after 72 hrs by SRB assay. It counts as functional, cell-based. The note with it: MCF7, 72 h.
Data set [3] deals with A549. In words: Antiproliferative activity against human A549 cells after 72 hrs by SRB assay. Format: functional, cell-based. The note with it: A549, 72 h.
The test system of data set [4] is A-375. As to the kind of experiment: Antiproliferative activity against human A375 cells after 72 hrs by SRB assay. It counts as functional, cell-based. The conditions noted are these: A-375, 72 h.
For the next data set, the system named is NCI-H460. In words: Antiproliferative activity against human NCI-H460 cells after 72 hrs by SRB assay. The conditions noted are these: NCI-H460, 72 h. Format: functional, cell-based.
Data set [5] is described as follows: Solubility of the compound. It counts as physicochemical.
The subject of a further data set is HEK293. In words: Antiproliferative activity against HEK293 cells after 72 hrs by SRB assay. It counts as cell-based. The conditions noted are these: Homo sapiens, HEK293, 72 h.
For data set [6], the system named is MCF7. In words: Growth inhibition of human MCF7 cells at 20 uM after 72 hrs by SRB assay relative to control. Format: functional. The conditions noted are these: MCF7, 72 h, read-out: GI.
Data set [7] relates to A-375. As to the kind of experiment: Growth inhibition of human A375 cells at 20 uM after 72 hrs by SRB assay relative to control. It counts as functional. The conditions noted are these: A-375, 72 h, read-out: GI.
The subject of data set [8] is A549. In words: Growth inhibition of human A549 cells at 20 uM after 72 hrs by SRB assay relative to control. It counts as functional. The conditions noted are these: A549, 72 h, read-out: GI.
The subject of another data set is HeLa. As to the kind of experiment: Growth inhibition of human HeLa cells at 20 uM after 72 hrs by SRB assay relative to control. The note with it: read-out: GI. It counts as functional.
The nature of data set [9]: Growth inhibition of human U87 cells at 20 uM after 72 hrs by SRB assay relative to control. It counts as functional, U-87MG ATCC. The conditions noted are these: U-87 MG, read-out: GI.

A word on the IC50: it is the concentration at which inhibition is half-maximal. Low readings indicate greater potency, high ones weaker potency. As to `CCc1cnc2c(N3CCOC[C@@H]3C)cc(-c3ccc(NC(=O)Nc4cccnc4)cc3)nn12`, the IC50 in data set [1] is 8.4 µM; in the data set with MCF7 [2] it was 6.6 µM; in the data set with A549 [3] it was 5.3 µM; with A-375 [4], 4.2 µM; with NCI-H460, 3.7 µM; in the data set on HEK293, 7.3 µM. Further, the solubility result in data set [5] was “Insoluble”.
For `CCc1cnc2c(N3CCOC[C@@H]3C)cc(-c3ccc(NC(=O)Nc4ccncc4)cc3)nn12`, the IC50 worked out at 5.1 µM in data set [1]; 4.7 µM in the data set on MCF7 [2]; 5.9 µM with A549 [3]; 4.1 µM with A-375 [4]; 2.8 µM with NCI-H460; 7.5 µM in the data set on HEK293. The solubility entry in [5] was “Insoluble”.
`OCc1cccc(-c2cc(N3CCOCC3)c3ncc(C4CCN(Cc5cccnc5)CC4)n3n2)c1`: the inhibition of growth at 20 µM in the data set on MCF7 [6] worked out at 46.2%; in the data set on A-375 [7], 12.5%; with A549 [8], 30.2%; in the data set on HeLa, 19.4%; in data set [9], 7.8%.
For the compound `O=C(Nc1ccncc1)Nc1ccc(-c2cc(N3CCOCC3)c3nccn3n2)cc1`, the IC50 is 11.1 µM in data set [1]; 21.9 µM with MCF7 [2]; 2.8 µM with A549 [3]; 7.2 µM in the data set with A-375 [4]; 20.7 µM in the data set with NCI-H460; 12.4 µM in the data set on HEK293.
As to `CCc1cnc2c(N3CCOCC3)cc(-c3ccc(NC(=O)Nc4cccnc4)cc3)nn12`, the IC50 was over 40 µM in data set [1]; over 40 µM in the data set with MCF7 [2]; 1.9 µM with A549 [3]; over 40 µM in the data set with A-375 [4]; over 40 µM with NCI-H460; over 40 µM in the data set with HEK293. In addition, in [5], the solubility result was “Insoluble”.
As for `O=C(Nc1ccncc1)Nc1ccc(-c2cc(N3CC4CCC(C3)O4)c3nccn3n2)cc1`, the IC50 in data set [1] came out at 11.7 µM; in the data set with MCF7 [2], 6.3 µM; with A549 [3], 2.3 µM; with A-375 [4] it was 10.9 µM; in the data set on NCI-H460 it was 2.2 µM; in the data set with HEK293, 3.4 µM.
Regarding `COC(=O)N1CCC(c2cnc3c(N4CCOC[C@@H]4C)cc(-c4ccc5[nH]ccc5c4)nn23)CC1`, the inhibition of growth at 20 µM in the data set with MCF7 [6] was 43.2%; in the data set on A-375 [7] it was 33.8%; in the data set on A549 [8] it was 16%; in the data set with HeLa it was 56%; in [9], 26.4%.
As for `Cc1cnc2c(N3CCOCC3)cc(-c3ccc(NC(=O)Nc4ccncc4)cc3)nn12`, the IC50 (in data set [1]; with MCF7 [2]; in the data set with A549 [3]; in the data set with A-375 [4]; in the data set with NCI-H460; with HEK293) was over 40 µM throughout. The solubility entry in data set [5] is on record as “Insoluble”.
For `C[C@H]1COCCN1c1cc(-c2cnc(N)nc2)nn2c(C3CCN(C(=O)c4cccnc4)CC3)cnc12`, the inhibition of growth at 20 µM in the data set with MCF7 [6] was 32%; in the data set on A-375 [7], 17.8%; in the data set on A549 [8] it was 42.1%; with HeLa it was 9.4%; in data set [9], 11.7%.
As for `O=C(Nc1ccc(-c2cc(N3CC4CCC(C3)O4)c3nccn3n2)cc1)Nc1cccnc1`, the IC50 in data set [1] came out at 5.8 µM; in the data set with MCF7 [2], 37.9 µM; in the data set on A549 [3] it was 1.1 µM; in the data set on A-375 [4], 4.7 µM; in the data set with NCI-H460, 0.65 µM; in the data set with HEK293, 9 µM.
As to `CN1CCN(c2ccc(NC(=O)Nc3ccc(-c4cc(N5CCOCC5)c5nccn5n4)cc3)cc2)CC1`, the IC50 in data set [1] was 4.9 µM; in the data set on MCF7 [2] it was 4.3 µM; in the data set with A549 [3] it was 3.3 µM; in the data set on A-375 [4], 1.6 µM; with NCI-H460 it was 3 µM; in the data set with HEK293 it was 7.8 µM.
With `C[C@H]1COCCN1c1cc(-c2ccc3[nH]ccc3c2)nn2c(C3CCN(Cc4cccnc4)CC3)cnc12`, the inhibition of growth at 20 µM in the data set on MCF7 [6] turned out to be 96.5%; with A-375 [7], 96.7%; in the data set on A549 [8], 84%; with HeLa, 73.6%; in [9] it was 84.4%. For the same compound, the IC50 in data set [1] is 7.9 µM; in the data set on MCF7 [2] it was 6.3 µM; with A549 [3] it was 7.7 µM; in the data set with A-375 [4] it was 3.4 µM.
For the compound `C[C@H]1COCCN1c1cc(-c2cnc(N)nc2)nn2c(C3CCN(S(C)(=O)=O)CC3)cnc12`, the inhibition of growth at 20 µM in the data set with MCF7 [6] was found to be 24.3%; in the data set with A-375 [7], 17.5%; with A549 [8] it was 39.5%; in the data set with HeLa, 4.4%; in data set [9] it was 1.5%.
Consider `C[C@H]1COCCN1c1cc(-c2ccc(NC(=O)Nc3ccc(N4CCN(C)CC4)cc3)cc2)nn2ccnc12`, for which the IC50 stood at 2.6 µM in [1]; 3.5 µM in the data set with MCF7 [2]; 1.5 µM with A549 [3]; 2 µM in the data set on A-375 [4]; 2 µM with NCI-H460; 8.4 µM in the data set on HEK293.
Regarding `C[C@H]1COCCN1c1cc(-c2cccc(CO)c2)nn2c(C3CCN(S(C)(=O)=O)CC3)cnc12`, the inhibition of growth at 20 µM is 36.1% in the data set with MCF7 [6]; 11.6% with A-375 [7]; 48.1% in the data set with A549 [8]; -2.3% in the data set on HeLa; 4.5% in [9].
In the case of `COc1ccc(-c2cc(N3CCOC[C@@H]3C)c3ncc(C4CCN(C(=O)c5cccnc5)CC4)n3n2)cc1CO`, the inhibition of growth at 20 µM stood at 42.1% in the data set on MCF7 [6]; 19.6% in the data set with A-375 [7]; 46.8% in the data set with A549 [8]; 17.8% with HeLa; 4.3% in [9].
The like results for `C[C@H]1COCCN1c1cc(-c2cnc(N)nc2)nn2c(C3CCN(Cc4cccnc4)CC3)cnc12` were, in that order, 34.2%, 14.7%, 44.8%, 30.5% and 10.8%.
In the case of `C[C@H]1COCCN1c1cc(-c2ccc3[nH]ccc3c2)nn2c(C3CCN(C(=O)c4cccnc4)CC3)cnc12`, the inhibition of growth at 20 µM with MCF7 [6] stood at 75.6%; in the data set with A-375 [7] it was 96.7%; in the data set with A549 [8], 57%; with HeLa, 34.2%; in data set [9], 58.3%. For the same compound, the IC50 in [1] was 10 µM; in the data set on MCF7 [2], 9.9 µM; in the data set with A549 [3] it was 11.6 µM; in the data set on A-375 [4] it was 4.1 µM.
As to `c1cncc(CN2CCC(c3cnc4c(N5CCOCC5)cc(-c5ccc6[nH]ccc6c5)nn34)CC2)c1`, the inhibition of growth at 20 µM was 94.6% in the data set on MCF7 [6]; 95.8% in the data set with A-375 [7]; 96.5% with A549 [8]; 68.6% with HeLa; 84.2% in [9]. Besides, the IC50 was 5.1 µM in data set [1], 13.5 µM with MCF7 [2], 7.1 µM in the data set on A549 [3] and 8 µM with A-375 [4].
On to `COC(=O)N1CCC(c2cnc3c(N4CCOC[C@@H]4C)cc(-c4cccc(CO)c4)nn23)CC1`, for which the inhibition of growth at 20 µM with MCF7 [6] was 34.6%; in the data set on A-375 [7], 16.3%; in the data set on A549 [8] it was 40.4%; in the data set with HeLa, 0.2%; in data set [9], -5.2%.
Regarding `CN1CCN(c2ccc(NC(=O)Nc3ccc(-c4cc(N5CC6CCC(C5)O6)c5nccn5n4)cc3)cc2)CC1`, the IC50 in [1] was determined as 4.3 µM; in the data set with MCF7 [2], 2.9 µM; in the data set on A549 [3] it was 3.1 µM; in the data set with A-375 [4], 1.8 µM; in the data set on NCI-H460, 2.9 µM; in the data set with HEK293 it was 12.1 µM.
As to `COc1ccc(NC(=O)Nc2ccc(-c3cc(N4CCOC[C@@H]4C)c4nccn4n3)cc2)cc1`, the IC50 came to 7.9 µM in data set [1]; 5.7 µM with MCF7 [2]; 2.7 µM in the data set on A549 [3]; 7.7 µM in the data set with A-375 [4]; 4.2 µM with NCI-H460; 10.5 µM with HEK293.
For `C[C@H]1COCCN1c1cc(-c2ccc3[nH]ccc3c2)nn2c(C3CCN(S(C)(=O)=O)CC3)cnc12`, the inhibition of growth at 20 µM in the data set with MCF7 [6] was found to be 55.3%; with A-375 [7] it was 29.4%; in the data set with A549 [8], 34%; in the data set on HeLa, 47.4%; in data set [9], 45.4%.
In the same order, the values of `COc1ccc(-c2cc(N3CCOC[C@@H]3C)c3ncc(C4CCN(Cc5cccnc5)CC4)n3n2)cc1CO` are 37.9%, 15.2%, 65%, 50.3% and 11.7%.
In the same order, the values of `COc1ccc(-c2cc(N3CCOC[C@@H]3C)c3ncc(C4CCN(S(C)(=O)=O)CC4)n3n2)cc1CO` are 45.1%, 21.2%, 49.6%, 12.7% and 4%.
With `O=C(Nc1ccc(-c2cc(N3CCOCC3)c3nccn3n2)cc1)Nc1cccnc1`, the IC50 in [1] stood at 20 µM; in the data set on MCF7 [2] it was 17.7 µM; with A549 [3], 0.22 µM; in the data set with A-375 [4], 15.7 µM; with NCI-H460 it was 1 µM; with HEK293 it was 1.4 µM.
